Test results as given in patent US8278455B2, “5- or 6-substituted benzimidazole derivatives as inhibitors of respiratory syncytial virus replication” (Janssen Pharmaceutica N.V., priority 2003, dated 2012).

How the values were obtained:
[1] = system: Respiratory Syncytial Virus; assay: In vitro screening for activity against Respiratory Syncytial Virus (MTT tetrazolium colorimetric assay, HeLa cells); format: cell-based; conditions: human respiratory syncytial virus, 168 h; protection against RSV cytopathology in HeLa cells, 7 days after infection; pEC50 = −log of EC50 in molar units
How it was run: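 HeLa cells (4×10^5 cells/ml) added 2 h after ~100 TCID50 RSV to wells holding five-fold compound dilutions, in Eagle's medium with 5% FCS and 20 mM Hepes; mock-infected rows gave cytotoxicity. After 7 days at 37 °C, MTT read at 540 minus 690 nm; EC50/CC50 from dose-response, reported as pEC50 categories.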

EC50 [1] [nM]	melting point [°C]	SMILES
3.98	150	Cc1cc(C)cc(NCc2ccc3nc(NCCCN4CCN(C)CC4)n(Cc4nc(C)ccc4O)c3c2)c1 [Compound 174, 2-{6-[(3,5-Dimethyl-phenylamino)-methyl]-2-[3-(4-methyl-piperazin-1-yl)-propylamino]-benzoimidazol-1-ylmethyl}-6-methyl-pyridin-3-ol]
398	> 260	Cc1ccc(O)c(Cn2c(NC3CCN(C)CC3)nc3ccccc32)n1 [Compound 101]
1	181	Cc1ccc(O)c(Cn2c(NC3CCN(CCN)CC3)nc3ccc(CCc4ccccc4)cc32)n1.Cl [Compound 143, 2-{2-[1-(2-amino-ethyl)-piperidin-4-ylamino]-6-phenethyl-benzoimidazol-1-ylmethyl}-6-methyl-pyridin-3-ol hydrochloride salt]

Second part, the compound before the results:

SMILES	EC50 [1] [nM]	melting point [°C]
Cc1cccc(CNc2ccc3nc(NC4CCN(C)CC4)n(Cc4nc(C)ccc4O)c3c2)c1 [Compound 28, 6-methyl-2-[6-(3-methyl-benzylamino)-2-(1-methyl-piperidin-4-ylamino)-benzoimidazol-1-ylmethyl]-pyridin-3-ol]	15.8	240
Cc1cccc(SCc2ccc3nc(NC4CCN(C)CC4)n(Cc4nc(C)ccc4O)c3c2)c1 [Compound 93, 6-methyl-2-[2-(1-methyl-piperidin-4-ylamino)-6-m-tolylsulfanylmethyl-benzoimidazol-1-ylmethyl]-pyridin-3-ol]	251	202
Cc1cccc(NC(=O)c2ccc3nc(NC4CCN(C)CC4)n(Cc4nc(C)ccc4O)c3c2)c1 [Compound 116, 3-(3-hydroxy-6-methyl-pyridin-2-ylmethyl)-2-(1-methyl-piperidin-4-ylamino)-3H-benzoimidazole-5-carboxylic acid m-tolylamide]	7940	172
Cc1cccc(NCc2cc(C)c3nc(NC4CCN(CCO)CC4)n(Cc4nc(C)ccc4O)c3c2)c1 [Compound 171, 2-[2-[1-(2-Hydroxy-ethyl)-piperidin-4-ylamino]-4-methyl-6-(m-tolylamino-methyl)-benzoimidazol-1-ylmethyl]-6-methyl-pyridin-3-ol]	3.16	123
Cc1cc(C)cc(NCc2ccc3nc(NCCCN4CCCCC4)n(Cc4nc(C)ccc4O)c3c2)c1 [Compound 173, 2-[6-[(3,5-dimethyl-phenylamino)-methyl]-2-(3-piperidin-1-yl-propylamino)-benzoimidazol-1-ylmethyl]-6-methyl-pyridin-3-ol]	1.58	161
